# Results: US9522920B2, “Bromodomain inhibitors and uses thereof” (Constellation Pharmaceuticals, Inc., priority 2010, dated 2016)
# Read-outs that look alike come from different tables or passages of the source.
# Legend:
# BRD4(BD1) = molecular target: T1, BRD4(BD1) (Homo sapiens, UniProt O60885); experiment: BRD4 AlphaLisa binding assay (Alphascreen); details: Table 14; BRD4 AlphaLisa Binding Assay; read-out: Alpha screen
# T1 construct: His; made in house
# Procedure, shortened: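 BRD4(BD1) (30 nM) incubated 20 min at room temperature with peptide (200 nM) and compound in 40 mM HEPES pH 7.0, 40 mM NaCl, 1 mM DTT, 0.01% BSA, 0.008% Brij-35, 1.2% DMSO.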
# IL-6 secretion = experiment: Cell-based IL-6 quantification assay (ELISA, Mesoscale) in LPS-stimulated THP-1 cells; details: Table 14, THP-1 cells, LPS, 16 h, read-out: IL6
# Procedure, shortened: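 THP-1 cells stimulated with LPS at 4 μg/mL final and exposed to compounds for 16 h. Supernatant IL-6 measured by Mesoscale ELISA and normalized to CellTiter-Glo cell content. Percent inhibition derived from that ratio.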
# MYC mRNA = experiment: cMyc RNA quantification assay (QuantiGene) in MV4:11 cells; assay type: cell-based; details: read-out: MYC-MV411
# Protocol: MV4:11 (AML) or Raji (Burkitt's lymphoma) cells were seeded in a 96-well plate and incubated in the presence of various concentrations of compounds for 4 h. Relative mRNA levels were quantitated by using QuantiGene 2.0 assay (Affymetrix) according to the manufacturer's recommendation. Signals were detected by using an Envision plate reader (Perkin-Elmer). Biological duplicates were averaged and normalized to vehicle (DMSO) control to calculate percent MYC mRNA levels.
# [1] = Homo sapiens, MV4-11, 4 h, Table 14, MV4:11 cells
SMILES,IC50 (BRD4(BD1)) [nM],"IC50 (IL-6 secretion; Homo sapiens, THP-1, 16 h) [nM]",IC50 (MYC mRNA; [1]) [nM],IC50 (IL-6 secretion) [nM],"IC50 (MYC mRNA; Table 14, MV4:11 cells, 4 h) [nM]"
"CCOC(=O)NC1N=C(c2ccc(Cl)cc2)c2ccccc2-c2c(C)noc21 (single isomer, unassigned) [Compound 253, Ethyl (6-(4-chlorophenyl)-1-methyl-4H-benzo[c]isoxazolo[4,5-e]azepin-4-yl)carbamate]",< 500,< 500,< 500,–,–
"Cc1noc2c1-c1nc(Cl)ccc1C(c1ccc(Cl)cc1)=NC2 [Compound 227, 2-Chloro-5-(4-chlorophenyl)-10-methyl-7H-isoxazolo[5,4-c]pyrido[2,3-e]azepine]",> 1000,> 1000,> 1000,–,–
"Cc1noc2c1-c1ccc(Cl)nc1C(c1ccc(Cl)cc1)=NC2 [Compound 240, 8-Chloro-6-(4-chlorophenyl)-1-methyl-4H-isoxazolo[5,4-c]pyrido[3,2-e]azepine]",> 1000,> 1000,> 1000,–,–
Cc1noc2c1-c1ccccc1C(c1ccc(C(C)(C)N)cc1)=N[C@H]2CC(N)=O [Compound 233],< 500,500 to 1000,500 to 1000,–,–
Cc1noc2c1-c1ccc(C#N)cc1C(c1ccc(Cl)cc1)=N[C@H]2CC(N)=O [Compound 224],< 500,< 500,< 500,–,–
Cc1noc2c1-c1ccccc1C(c1ccc(Cl)cc1)=N[C@H]2CC(=O)NCCO [Compound 214],< 500,< 500,< 500,–,–
Cc1noc2c1-c1ccc(Cl)cc1C(c1ccc(F)cc1)=N[C@H]2C [Compound 230],< 500,< 500,500 to 1000,–,–
Cc1noc2c1-c1ccc(F)cc1C(c1ccc(C#N)cc1)=N[C@H]2CC(N)=O [Compound 212],< 500,< 500,< 500,–,–
"Cc1noc2c1-c1ccc(=O)n(C)c1C(c1ccc(Cl)cc1)=NC2 [Compound 246, 6-(4-Chlorophenyl)-1,7-dimethyl-4H-isoxazolo[5,4-c]pyrido[3,2-e]azepin-8(7H)-one]",500 to 1000,> 1000,> 1000,–,–
"Cc1noc2c1-c1ccccc1C(c1ccc(Cl)cc1)=N[C@H]2CC(N)C(F)(F)F (mixture of isomers) [Compound 232, Mixture of (2S)-3-((4S)-6-(4-chlorophenyl)-1-methyl-4H-benzo[c]isoxazolo[4,5-e]azepin-4-yl)-1,1,1-trifluoropropan-2-amine and (2R)-3-((4S)-6-(4-chlorophenyl)-1-methyl-4H-benzo[c]isoxazolo[4,5-e]azepin-4-yl)-1,1,1-trifluoropropan-2-amine]",> 1000,> 1000,> 1000,–,–
"Cc1noc2c1-c1ccc(O)cc1C(c1ccc(Cl)cc1)=N[C@H]2CC(N)=O [Compound 239, 2-((4S)-6-(4-chlorophenyl)-8-hydroxy-1-methyl-4H-benzo[c]isoxazolo[4,5-e]azepin-4-yl)acetamide]",< 500,< 500,< 500,–,–
"CNc1ccc2c(n1)C(c1ccc(Cl)cc1)=NCc1onc(C)c1-2 [Compound 241, 6-(4-Chlorophenyl)-N,1-dimethyl-4H-isoxazolo[5,4-c]pyrido[3,2-e]azepin-8-amine]",< 500,< 500,< 500,–,–
"Cc1noc2c1-c1ccccc1C(c1ccc(Cl)cc1)=N[C@H]2CC(C)(C)O [Compound 223, 1-((4S)-6-(4-chlorophenyl)-1-methyl-4H-benzo[c]isoxazolo[4,5-e]azepin-4-yl)-2-methylpropan-2-ol]",> 1000,> 1000,> 1000,–,–
Cc1noc2c1-c1ccc(OC(C)C)cc1C(c1ccc(Cl)cc1)=N[C@H]2CC(N)=O [Compound 249],< 500,–,–,< 500,< 500
"Cc1noc2c1-c1cnc(N3CCCC3)cc1C(c1ccc(Cl)cc1)=NC2 [Compound 255, 6-(4-Chlorophenyl)-1-methyl-8-(pyrrolidin-1-yl)-4H-isoxazolo[5,4-c]pyrido[3,4-e]azepine]",< 500,< 500,500 to 1000,–,–
"CCOC(=O)NC1N=C(c2ccc(Cl)cc2)c2ccccc2-c2c(C)noc21 (single isomer, unassigned) [Compound 254, Ethyl (6-(4-chlorophenyl)-1-methyl-4H-benzo[c]isoxazolo[4,5-e]azepin-4-yl)carbamate]",500 to 1000,–,–,> 1000,> 1000
"Cc1noc2c1-c1ccc(N)nc1C(c1ccc(Cl)cc1)=NC2 [Compound 257, 6-(4-Chlorophenyl)-1-methyl-4H-isoxazolo[5,4-c]pyrido[3,2-e]azepin-8-amine]",< 500,500 to 1000,> 1000,–,–
"CCOC(=O)NC1N=C(c2ccc(Cl)cc2)c2ccccc2-c2c(C)noc21 (stereo not drawn) [Compound 225, ethyl (6-(4-chlorophenyl)-1-methyl-4H-benzo[c]isoxazolo[4,5-e]azepin-4-yl)carbamate]",< 500,< 500,< 500,–,–

SMILES,IC50 (BRD4(BD1)) [nM],"IC50 (IL-6 secretion; Homo sapiens, THP-1, 16 h) [nM]",IC50 (MYC mRNA; [1]) [nM],IC50 (IL-6 secretion) [nM],"IC50 (MYC mRNA; Table 14, MV4:11 cells, 4 h) [nM]"
"Cc1noc2c1-c1ccccc1C(c1ccc(Cl)cc1)=NC2C#N (stereo not drawn) [Compound 215, 6-(4-chlorophenyl)-1-methyl-4H-benzo[c]isoxazolo[4,5-e]azepine-4-carbonitrile]",> 1000,> 1000,> 1000,–,–
"Cc1noc2c1-c1ccccc1C(c1ccc(F)cc1)=NC2C(F)(F)F (stereo not drawn) [Compound 238, 6-(4-fluorophenyl)-1-methyl-4-(trifluoromethyl)-4H-benzo[c]isoxazolo[4,5-e]azepine]",> 1000,> 1000,> 1000,–,–
"Cc1noc2c1-c1ccc(N3CCCC3)nc1C(c1ccc(Cl)cc1)=NC2 [Compound 247, 6-(4-Chlorophenyl)-1-methyl-8-(pyrrolidin-1-yl)-4H-isoxazolo[5,4-c]pyrido[3,2-e]azepine]",< 500,< 500,500 to 1000,–,–
"CCNC(=O)NC1N=C(c2ccc(Cl)cc2)c2ccccc2-c2c(C)noc21 (stereo not drawn) [Compound 245, 1-(6-(4-chlorophenyl)-1-methyl-4H-benzo[c]isoxazolo[4,5-e]azepin-4-yl)-3-ethylurea]",< 500,< 500,< 500,–,–
Cc1noc2c1-c1ccc(Cl)cc1C(c1ccc(F)cc1)=N[C@H]2CC(N)=O [Compound 211],< 500,< 500,500 to 1000,–,–
Cc1noc2c1-c1ccc(-c3ccc(N)nc3)cc1C(c1ccc(F)cc1)=N[C@H]2CC(N)=O [Compound 216],< 500,< 500,< 500,–,–
Cc1noc2c1-c1ccc(-c3ccc(N)nc3)cc1C(c1ccc(Cl)cc1)=N[C@H]2CC(N)=O [Compound 213],< 500,< 500,< 500,–,–
"Cc1noc2c1-c1ccnc(Oc3ccccc3)c1C(c1ccc(Cl)cc1)=NC2 [Compound 229, 6-(4-Chlorophenyl)-1-methyl-7-phenoxy-4H-isoxazolo[5,4-c]pyrido[4,3-e]azepine]",> 1000,> 1000,> 1000,–,–
"Cc1noc2c1-c1ccnc(N)c1C(c1ccc(Cl)cc1)=N[C@H]2CC(N)=O [Compound 222, 2-((4S)-7-Amino-6-(4-chlorophenyl)-1-methyl-4H-isoxazolo[5,4-c]pyrido[4,3-e]azepin-4-yl)acetamide]",< 500,< 500,< 500,–,–
"Cc1noc2c1-c1ccccc1C(c1ccc(Cl)cc1)=NC2C(N)=O (stereo not drawn) [Compound 218, 6-(4-chlorophenyl)-1-methyl-4H-benzo[c]isoxazolo[4,5-e]azepine-4-carboxamide]",> 1000,> 1000,> 1000,–,–
"COc1ccc2c(n1)-c1c(C)noc1CN=C2c1ccc(Cl)cc1 [Compound 219, 5-(4-Chlorophenyl)-2-methoxy-10-methyl-7H-isoxazolo[5,4-c]pyrido[2,3-e]azepine]",> 1000,> 1000,500 to 1000,–,–
Cc1noc2c1-c1ccc(-c3ccc(C(=O)O)cc3)cc1C(c1ccc(F)cc1)=N[C@H]2C [Compound 237],< 500,< 500,< 500,–,–
Cc1noc2c1-c1ccccc1C(c1ccc(C3(O)CC3)cc1)=N[C@H]2CC(N)=O [Compound 226],< 500,< 500,< 500,–,–
Cc1noc2c1-c1ccc(-c3ccc(N)nc3)cc1C(c1ccc(F)cc1)=N[C@H]2C [Compound 231],< 500,< 500,< 500,–,–
CCOc1ccc2c(c1)C(c1ccc(Cl)cc1)=N[C@@H](CC(N)=O)c1onc(C)c1-2 [Compound 248],< 500,< 500,< 500,–,–
Cc1noc2c1-c1ccc(-c3ccc(C(=O)O)cc3)cc1C(c1ccc(F)cc1)=N[C@H]2CC(N)=O [Compound 234],< 500,500 to 1000,500 to 1000,–,–
Cc1noc2c1-c1sc(C)c(C)c1C(c1ccc(C(C)(C)O)cc1)=NC2CC(N)=O (stereo not drawn) [Compound 236],< 500,< 500,< 500,–,–
"Cc1noc2c1-c1[nH]c(=O)ccc1C(c1ccc(Cl)cc1)=NC2 [Compound 220, 5-(4-Chlorophenyl)-10-methyl-1H-isoxazolo[5,4-c]pyrido[2,3-e]azepin-2(7H)-one]",> 1000,> 1000,> 1000,–,–
